Earlier results in patent US10195128B2, “Oral care compositions” (Colgate-Palmolive Company, priority 2016, dated 2019).

Details: oral or intraperitoneal administration; after consumption

Time to excretion of glucuronide compounds and sulphate conjugates in urine: ≤ 24 h
Compound: COc1cc(CCC(C)=O)ccc1O [zingerone, 4-(3-methoxy-4-hydroxyphenyl)-butan-2-one]
